Results published in patent publication US7919508B2, “3-piperidinylisochroman-5-ols as dopamine agonists” (Aventis Pharmaceuticals Inc., priority 2004, dated 2011).
Where a name gives a salt, the structure may show the parent alone.

Legend:
[1] = target: T1, human dopamine D1 receptor (Homo sapiens, UniProt P21728); assay: [3H]-SCH-23390 binding to cloned human dopamine D1 receptors (CHO cell membranes); details: competitive binding, [3H]-SCH-23390, cloned human D1 in CHO membranes; read-out: D1 affinity Ki
T1 construct: A 1.4 Kb Hind III to Xho I fragment was subcloned into the vector pMMLV; expressed in transfected cells; host or cells: CHO cells, clone CHO-D1M#9 (plasmid pHD1MMLV), membranes
T1 sequence (P21728 whole entry, the tested form may be a part): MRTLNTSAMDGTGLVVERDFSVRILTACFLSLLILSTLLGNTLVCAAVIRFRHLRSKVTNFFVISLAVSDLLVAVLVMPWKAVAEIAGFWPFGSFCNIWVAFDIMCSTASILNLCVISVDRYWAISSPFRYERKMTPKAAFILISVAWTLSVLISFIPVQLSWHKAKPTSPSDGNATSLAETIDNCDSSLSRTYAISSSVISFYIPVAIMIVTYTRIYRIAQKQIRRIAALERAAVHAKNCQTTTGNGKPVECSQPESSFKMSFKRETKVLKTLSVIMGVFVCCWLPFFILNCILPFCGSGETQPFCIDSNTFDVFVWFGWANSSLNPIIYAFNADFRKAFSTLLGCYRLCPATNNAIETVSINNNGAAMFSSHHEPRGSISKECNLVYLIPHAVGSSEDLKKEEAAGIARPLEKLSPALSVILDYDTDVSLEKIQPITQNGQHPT
Protocol: [^3H]-SCH-23390 Binding to Cloned Human Dopamine D1 Receptors
Determination of relative binding affinity of potential neuropsychiatric and other agents for the human dopamine D1 receptor.
The human D, cDNA was obtained from the laboratory of Dr. Marc Caron in the vector pCMV5. A 1.4 Kb Hind III to Xho I fragment was subcloned into the vector pMMLV. The plasmid pHD1MMLV was then sequenced completely. Transient transfections in COS-7 cells were performed and D1 specific binding was obtained. The construct pHD1MMLV was then transfected stably into CHO cells and 72 G418-resistant clones were isolated. High expressors were identified by mRNA dot blot analysis. Six high expressors were further characterized by binding and then clone CHO-D1M#9 was chosen for detailed pharmacological characterization. This clone was then grown in suspension culture for the purpose of obtaining enough protein to accommodate several months of screening.
B. Cell Culture Conditions
• 1. […] Cells are transferred to suspension culture when at least […] are available (this allows for 300,000 cells/ml in a 50 ml spinner flask; this is the ideal suspension density). Cells are removed from flasks with trypsin, spun down at 1000×G and resuspended the pellet in fresh medium: • 50% CHO-SFM-II+50% Ham's F12 w/10% FBS (final FBS conc. 5%)+400 μg/ml G418+1% P/S. • 3. After the transfer to suspension culture, growth is monitored and cell viability is assessed using trypan blue exclusion. Total and viable cell count on 5 sectors of the hemocytometer are recorded. When the viable cell density reaches 600,000 cell/ml, the volume is doubled. • 4. After 1 week of growth in the 50/50 medium, the cells are spun down and transferred to a new spinner flask and replaced with 75% CHO-SFM II/25% Ham's F12+10% FBS plus the pen-strep and G418. Thereafter every 3 days, the medium is replaced with new medium containing a decreasing amount of FBS as follows:
• 5. The final maintenance culturing medium is made up as follows: • A stock mixture of 10 ml of pen-strep, 0.5 ml of […] (active; final concentration: 200 μg/ml) G418 and 1 ml of FBS are mixed and filtered and refrigerated. A volume (11.5 ml) of this mixture is added to a freshly opened 1 L bottle of CHO-SFM II. C. Membrane Preparation
Cells are harvested into 250 ml centrifuge tubes and spun down at 1200×G. The medium is removed and 100 ml PBS (phosphate-buffered saline) is added to each centrifuge tube; cells are resuspended and spun down again. The PBS is removed and the final pellet is homogenized with a polytron on ice at a medium setting.
The membrane suspension is diluted in water and samples (10, 50 and 100 μl; q.s. to 100 μl with water) are diluted with 100 μl of 1% SDS. The sample is vortexed and allowed to stand for 5 min. Two aliquots each of the solubilized protein sample are placed in clean 13×100 test tubes for the assay. Instructions are followed as outlined in the BioRad DC protein determination kit (Catalog # 500-0112). OD readings that fall between 0.1-0.5 (mid-range of standard curve) should typically be used for calculations. Protein concentrations are calculated from a standard curve using bovine serum albumin as standard by linear regression and interpolation.
Following cell harvesting and protein determination, the homogenate is diluted with 10% DMSO to the correct volume based on Bmax and relative size of individual experiments to be conducted. The concentrated protein is stored in cryogenic vials in aliquots of 1-1.5 ml. Samples may be stored in −80° C. freezer or in liquid nitrogen.

[2] = target: human dopamine D2Long (D2L) receptors (Homo sapiens, UniProt P14416)
Sequence of human dopamine D2Long (D2L) receptors (P14416 whole entry): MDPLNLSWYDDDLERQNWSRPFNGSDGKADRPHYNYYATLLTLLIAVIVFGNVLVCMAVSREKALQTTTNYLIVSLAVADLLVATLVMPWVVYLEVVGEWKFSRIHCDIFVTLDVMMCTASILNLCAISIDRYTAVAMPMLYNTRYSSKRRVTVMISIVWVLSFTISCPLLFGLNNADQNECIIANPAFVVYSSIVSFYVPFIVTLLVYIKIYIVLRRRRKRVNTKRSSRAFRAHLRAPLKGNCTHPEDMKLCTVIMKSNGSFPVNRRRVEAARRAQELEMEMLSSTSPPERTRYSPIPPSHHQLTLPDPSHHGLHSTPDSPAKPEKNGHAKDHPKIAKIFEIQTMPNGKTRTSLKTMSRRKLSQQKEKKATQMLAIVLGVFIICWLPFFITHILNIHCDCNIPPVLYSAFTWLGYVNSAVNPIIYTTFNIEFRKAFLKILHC

Row | SMILES | Ki [1] [nM] | Ki [2] [nM]
1 | CNC[C@@H]1O[C@H](C2CCN(Cc3ccccc3)CC2)Cc2c1ccc(C)c2O [Example 171, (1R,3S)-3-(1-Benzyl-piperidin-4-yl)-6-methyl-1-methylaminomethyl-isochroman-5-ol] | 98 | 317
2 | C=CCN(C)C[C@@H]1O[C@H](C2CCN(Cc3ccccc3)CC2)Cc2c1ccc(C)c2O [Example 176, (1R,3S)-1-[(Allyl-methyl-amino)-methyl]-3-(1-benzyl-piperidin-4-yl)-6-methyl-isochroman-5-ol] | 1700 | 124
3 | Cc1ccc2c(c1O)C[C@@H](C1CCN(C(C(=O)O)c3ccccc3)CC1)O[C@H]2CN (stereo partly drawn) [Example 195, [4-((1R,3S)-1-Aminomethyl-5-hydroxy-6-methyl-isochroman-3-yl)-piperidin-1-yl]-phenylacetic acid dihydrobromide] | 1700 | –
4 | Cc1ccc2c(c1O)C[C@@H](C1CCN(C(=O)N(c3ccccc3)c3ccccc3)CC1)O[C@H]2CN [Example 130, 4-((1R,3S)-1-Aminomethyl-5-hydroxy-6-methyl-isochroman-3-yl)-piperidine-1-carboxylic acid diphenylamide hydrochloride] | 156 | –
5 | Cc1ccc2c(c1O)C[C@@H](C1CCN(Cc3cccc(C(F)(F)F)c3F)CC1)O[C@H]2CN [Example 80, (1R,3S)-1-Aminomethyl-3-[1-(2-fluoro-3-trifluoromethyl-benzyl)-piperidin-4-yl]-6-methyl-isochroman-5-ol dihydrochloride] | 48.7 | 565
6 | CCN(CC)C[C@@H]1O[C@H](C2CCN(Cc3ccccc3)CC2)Cc2c1ccc(C)c2O [Example 170, (1R,3S)-3-(1-Benzyl-piperidin-4-yl)-1-diethylaminomethyl-6-methyl-isochroman-5-ol] | 1670 | 377
7 | CCS(=O)(=O)N1CCC([C@@H]2Cc3c(ccc(C)c3O)[C@H](CN)O2)CC1 [Example 153, (1R,3S)-1-Aminomethyl-3-(1-ethanesulfonyl-piperidin-4-yl)-6-methyl-isochroman-5-ol hydrochloride] | 250 | ≥ 100000
8 | Cc1ccc2c(c1O)C[C@@H](C1CCN(C(=O)OCc3ccccc3)CC1)O[C@H]2CN [Example 122, 4-((1R,3S)-1-Aminomethyl-5-hydroxy-6-methyl-isochroman-3-yl)-piperidine-1-carboxylic acid benzyl ester hydrochloride] | 92 | 751
9 | Cc1ccc2c(c1O)C[C@@H](C1CCN(C(C)c3ccccc3)CC1)O[C@H]2CN (stereo partly drawn) [Example 51, (1R,3S)-1-Aminomethyl-6-methyl-3-[1-(1-phenyl-ethyl)-piperidin-4-yl]-isochroman-5-ol dihydrochloride] | 156 | –
10 | C=CCN(CC=C)C[C@@H]1O[C@H](C2CCN(Cc3ccccc3)CC2)Cc2c1ccc(C)c2O [Example 187, (1R,3S)-3-(1-Benzyl-piperidin-4-yl)-1-diallylaminomethyl-6-methyl-isochroman-5-ol] | 2640 | –
11 | C=CCN(CC=C)C[C@@H]1O[C@H](C2CCN(Cc3ccc(C(F)(F)F)cc3)CC2)Cc2c1ccc(C)c2O [Example 185, (1R,3S)-1-Diallylaminomethyl-6-methyl-3-[1-(4-trifluoromethyl-benzyl)-piperidin-4-yl]-isochroman-5-ol] | 3100 | –
12 | CCCN(C)C[C@@H]1O[C@H](C2CCN(Cc3ccc(C(F)(F)F)cc3)CC2)Cc2c1ccc(C)c2O [Example 184, (1R,3S)-6-Methyl-1-[(methyl-propyl-amino)-methyl]-3-[1-(4-trifluoromethyl-benzyl)-piperidin-4-yl]-isochroman-5-ol] | 110 | –
13 | C=CCNC[C@@H]1O[C@H](C2CCN(Cc3ccccc3)CC2)Cc2c1ccc(C)c2O [Example 186, (1R,3S)-1-Allylaminomethyl-3-(1-benzyl-piperidin-4-yl)-6-methyl-isochroman-5-ol] | 1910 | –
